Patent US8609635B2, “Fused tricyclic silyl compounds and methods of use thereof for the treatment of viral diseases” (priority 2010, dated 2013)

How the values were obtained:
HCV replicon gt1b_con1 = assay: Cell-based HCV replicon assay (TaqMan), genotype 1b (Con1); conditions: Hepatitis C virus, 72 h; replicon 1b (Con1); replicon RNA by TaqMan, day 3
Experimental: (§1) Measurement of inhibition by compounds of the present invention was performed using the HCV replicon system. Several different replicons encoding different HCV genotypes or mutations were used. In addition, potency measurements were made using different formats of the replicon assay, including different ways of measurements and different plating formats. See Jan M. Vrolijk et al., A replicons-based bioassay for the measurement of interferons in patients with chronic hepatitis C, 110 J. VIROLOGICAL METHODS 201 (2003); Steven S. Carroll et al., Inhibition of Hepatitis C Virus RNA Replication by 2′-Modified Nucleoside Analogs, 278(14) J. BIOLOGICAL […] 11979 (2003). However, the underlying principles are common to all of these determinations, and are outlined below.
(§2) Compounds of the present invention were assayed for cell-based anti-HCV activity using the following protocol. Replicon cells were seeded at 5000 cells/well in 96-well collagen I-coated Nunc plates in the presence of the test compound. Various concentrations of test compound, typically in 10 serial 2-fold dilutions, were added to the assay mixture, with the starting concentration ranging from 250 μM to 1 μM. The final concentration of DMSO was 0.5%, fetal bovine serum was 5%, in the assay media. Cells were harvested on day 3 by the addition of 1× cell lysis buffer (Ambion cat #8721). The replicon RNA level was measured using real time PCR (TaqMan® assay). The amplicon was located in 5B. The PCR primers were: 5B.2F, […] (SEQ. ID NO. 1); 5B.2R, […] (SEQ. ID NO. 2); the probe sequence was FAM-labeled […] (SEQ. ID NO. 3). GAPDH RNA was used as endogenous control and was amplified in the same reaction as NS5B (multiplex PCR) using primers and VIC-labeled probe recommended by the manufacturer (PE Applied Biosystem). The real-time RT-PCR reactions were run on ABI PRISM 7900HT Sequence Detection System using the following program: 48° C. for 30 minutes, 95° C. for 10 minutes, 40 cycles of 95° C. for 15 sec, 60° C. for 1 minute. The ΔCT values (CT5B-CTGAPDH) were plotted against the concentration of test compound and fitted to the sigmoid dose-response model using XLfit4 (MDL). […] Alternatively, to quantitate the absolute amount of replicon RNA, a standard curve was established by including serially diluted T7 transcripts of replicon RNA in the Taqman assay. All TaqMan® reagents were from PE Applied Biosystems. Such an assay procedure was described in detail in e.g. Malcolm et al., Antimicrobial Agents and Chemotherapy 50: 1013-1020 (2006).
(§3) Wherein gt1a_H77 was prepared as described in Yi et al., J Virol. 2004, 78(15):7904-15; gt1b_con1 was prepared as described in Lohmann et al., Science 1999, 285(5424):110-3; and gt2a_JFH was prepared as described in Kato et al., Gastroenterology. 2003, 125(6):1808-17. Chimeric replicons contain NS5A from patient isolates of genotypes 1a, 1b, 2b, 3a and 4a as indicated.

HCV replicon gt1a_H77 = assay: Cell-based HCV replicon assay (TaqMan), genotype 1a (H77); conditions: Hepatitis C virus, 72 h, replicon 1a (H77); replicon RNA by TaqMan, day 3
Experimental: as §1, §2, §3

[1] = system: HCV chimeric replicon with NS5A of genotype 3a (NC00982); assay: Cell-based HCV replicon assay (TaqMan), chimeric replicon genotype 3a (NC00982); conditions: Hepatitis C virus, 72 h, read-out: HCV replicon EC50 3a (NC00982), chimeric replicon 3a (NC00982); replicon RNA by TaqMan, day 3
Experimental: as §1, §2, §3

HCV replicon gt2a_JFH = assay: Cell-based HCV replicon assay (TaqMan), genotype 2a (JFH); conditions: Hepatitis C virus, 72 h, replicon 2a (JFH); replicon RNA by TaqMan, day 3
Experimental: as §1, §2, §3

[2] = system: HCV chimeric replicon with NS5A of genotype 4a (DQ41878); assay: Cell-based HCV replicon assay (TaqMan), chimeric replicon genotype 4a (DQ41878); conditions: Hepatitis C virus, 72 h, read-out: HCV replicon EC50 4a (DQ41878)
Experimental: as §1, §2, §3

[3] = system: HCV replicon 1a (L31V) mutant; assay: Cell-based HCV replicon assay (TaqMan), genotype 1a mutant L31V; conditions: Hepatitis C virus, 72 h, read-out: HCV replicon EC50 1a (L31V)
Experimental: as §1, §2, §3

[4] = system: HCV replicon 1a (Y93H) mutant; assay: Cell-based HCV replicon assay (TaqMan), genotype 1a mutant Y93H; conditions: Hepatitis C virus, 72 h, read-out: HCV replicon EC50 1a (Y93H)
Experimental: as §1, §2, §3

| SMILES | EC50 (HCV replicon gt1b_con1) [nM] | EC50 (HCV replicon gt1a_H77) [nM] | EC50 [1] [nM] | EC50 (HCV replicon gt2a_JFH) [nM] | EC50 [2] [nM] | EC50 [3] [nM] | EC50 [4] [nM] |
| --- | --- | --- | --- | --- | --- | --- | --- |
| COC(=O)N[C@H](C(=O)N1C[Si](C)(C)C[C@H]1c1ncc(-c2ccc(-c3ccc4c(ccc5nc([C@@H]6CC(F)CN6C(=O)[C@@H](NC(=O)OC)C(C)C)[nH]c54)c3)cc2)[nH]1)C(C)C (stereo partly drawn) [Compound 53] | 0.003 | 0.016 | 0.09 | 0.026 | 0.1 | 64 | 10 |
| COC(=O)N[C@H](C(=O)N1CC(F)C[C@H]1c1ncc(-c2ccc(-c3ccc4c(ccc5nc([C@@H]6C[Si](C)(C)CN6C(=O)[C@@H](NC(=O)OC)C(C)C)[nH]c54)c3)cc2)[nH]1)C(C)C (stereo partly drawn) [Compound 55] | 0.006 | 0.07 | 0.8 | 0.15 | 0.35 | 62 | 27 |
| COC(=O)N[C@H](C(=O)N1C[Si]2(CCCC2)C[C@H]1c1ncc(-c2ccc(-c3ccc4c(ccc5nc([C@@H]6CCCN6C(=O)[C@@H](NC(=O)OC)C(C)C)[nH]c54)c3)cc2)[nH]1)C(C)C [Compound 61] | 0.005 | 0.06 | 0.2 | 0.005 | 0.076 |  | 350 |
| COC(=O)N[C@H](C(=O)N1CCS(=O)(=O)CC1c1ncc(-c2ccc(-c3ccc4c(ccc5nc([C@@H]6C[Si](C)(C)CN6C(=O)[C@@H](NC(=O)OC)C(C)C)[nH]c54)c3)cc2)[nH]1)C(C)C (stereo partly drawn) [Compound 67] | 0.011 | 0.19 | 5 | 0.16 | 0.5 |  | 380 |
| COC(=O)N[C@H](C(=O)N1CC(F)(F)C[C@H]1c1nc2ccc3cc(-c4ccc5c(ccc6nc([C@@H]7C[Si](C)(C)CN7C(=O)[C@@H](NC(=O)OC)C(C)C)[nH]c65)c4)ccc3c2[nH]1)C(C)C [Compound 70] | 0.007 | 0.012 | 0.118 | 0.04 | 0.077 |  | 25 |
| COC(=O)N[C@H](C(=O)N1CC(C)(C)C[C@H]1c1ncc(-c2ccc(-c3ccc4c(ccc5nc([C@@H]6C[Si](C)(C)CN6C(=O)[C@@H](NC(=O)OC)C(C)C)[nH]c54)c3)cc2)[nH]1)C(C)C [Compound 78] | 0.001 | 0.015 | 0.26 | 0.04 | 0.137 |  | 90 |
| COC(=O)N[C@H](C(=O)N1C[Si](C)(C)C[C@@H]1c1nc2ccc3cc(-c4ccc(-c5cnc([C@@H]6CC(C)(C)CN6C(=O)[C@@H](NC(=O)OC)C(C)C)[nH]5)cc4)ccc3c2[nH]1)C(C)C [Compound 79] | 0.012 | 0.127 | 4.4 | 0.315 | 0.45 |  | 351 |
| CC(C)[C@H](NC(=O)OC1(C)CC1)C(=O)N1CC(C)(C)C[C@H]1c1ncc(-c2ccc(-c3ccc4c(ccc5nc([C@@H]6C[Si](C)(C)CN6C(=O)[C@@H](NC(=O)OC6(C)CC6)C(C)C)[nH]c54)c3)cc2)[nH]1 [Compound 80] | > 1 | > 1 | > 100 | > 10 | > 100 |  | > 1000 |
| COC(=O)N[C@H](C(=O)N1C[Si](C)(C)C[C@H]1c1nc2ccc3cc(-c4ccc(-c5cnc([C@@H]6CCCN6C(=O)[C@@H](NC(=O)OC)C67CC(C(F)(F)F)(C6)C7)[nH]5)cc4)ccc3c2[nH]1)C(C)C [Compound 81] | 0.012 | 0.94 | 9.69 | 0.712 | > 10 | > 100 | > 1000 |
